Measurements as given in patent publication US12391698B2, “Substituted piperidines and piperazines and methods for the treatment of CNS disorders” (SUVEN LIFE SCIENCES LIMITED, priority 2022, dated 2025).
Counter-ions that a name gives are not always drawn.

Assays:
[1] = molecular target: T1, recombinant human 5-HT1A receptor (Homo sapiens, UniProt P08908); assay: Determination of Kb at 5-HT1A receptor, pCRE-Luc reporter gene assay in CHO cells; type: cell-based
T1 construct: expressed in transfected cells
T1 sequence (P08908 1-422): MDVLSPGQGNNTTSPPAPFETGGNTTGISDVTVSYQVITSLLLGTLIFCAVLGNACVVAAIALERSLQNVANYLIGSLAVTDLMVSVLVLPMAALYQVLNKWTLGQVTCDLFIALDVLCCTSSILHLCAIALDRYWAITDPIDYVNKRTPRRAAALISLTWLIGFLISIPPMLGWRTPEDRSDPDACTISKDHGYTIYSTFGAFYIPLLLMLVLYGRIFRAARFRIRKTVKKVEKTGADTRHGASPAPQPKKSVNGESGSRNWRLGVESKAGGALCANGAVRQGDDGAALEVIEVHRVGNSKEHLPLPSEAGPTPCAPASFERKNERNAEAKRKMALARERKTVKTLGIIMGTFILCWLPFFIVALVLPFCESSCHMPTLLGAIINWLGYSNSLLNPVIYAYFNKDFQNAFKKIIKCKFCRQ
Experimental: A stable CHO cell line expressing recombinant human 5-HT1A receptor and pCRE-Luc reporter system was used for cell-based assay. The assay offers a non-radioactive based approach to determine binding of a compound to GPCRs. In this specific assay, the level of intracellular cAMP which is modulated by activation or inhibition of the receptor is measured. The recombinant cells harbor luciferase reporter gene under the control of cAMP response element.
The above cells were grown in 96 well clear bottom white plates in Hams F12 medium containing 10% fetal bovine serum (FBS). Prior to the addition of compounds or standard agonist, cells were serum starved overnight. Increasing concentrations of test compound were added along with 1 μM of U92016A and 1 μM of forskolin in Opti-MEM medium to the cells. The incubation was continued at 37° C. in CO2 incubator for 4 hours. Medium was removed and cells were washed with phosphate buffered saline. The cells were lysed and luciferase activity was measured in a Luminometer. Luminescence units were plotted against the compound concentrations using GraphPad Prism software. EC50 values of the compounds were defined as the concentration required in reducing the luciferase activity by 50%. The Kb values were calculated by feeding the concentration of agonist used in the assay and its EC50 value in the same software.

[2] = system: Male CD1 mice; assay: Resident-intruder task; type: in vivo, mouse; conditions: 3.0 mg/kg, p.o., 30 min prior to trial
Experimental: Male CD1 mice of weight 20-35 g (Resident) and 15-25 g (Intruder) were used. Resident mice were habituated individually with an ovariectomized female mouse in each cage and intruders were habituated socially for 1 week. β-estradiol at a dose of 0.2 mg/kg, s.c. was administered to female mice during habituation. On day 1 and day 2, intruder was exposed to resident mouse in resident's home cage for a period of 10 min and duration of attack was measured. During this exposure, female mouse were removed from the cage. On day 4 from initial exposure, animals were randomized based on their duration of attacking and administered respective treatments. Test compound and vehicle were administered 30 min prior to the trial. After post dose interval resident mice were exposed to same intruder for 10 min and duration of attack was recorded. Resident intruder task models aggressive behavior.

In the case of `O=C1C[C@@H]2CCCN2C(=O)N1CCCCN1CCN(c2nsc3ccccc23)CC1` [Example 2, 2-[4-(4-Benzo[d]isothiazol-3-yl-piperazin-1-yl)-butyl]-tetrahydro-pyrrolo[1,2-c]pyrimidine-1,3-dione oxalate], the “agonist activity at human recombinant 5-HT1A receptor” value ([1]; pCRE-Luc reporter gene assay) is reported as “no detectable agonist activity”, the “antagonistic activity at human recombinant 5-HT1A receptor” value ([1]; pCRE-Luc reporter gene assay) is reported as “antagonistic activity” and the Kb ([1]; with 1 μM U92016A and 1 μM forskolin, luciferase readout) is reported as 2.3 nM. The “Inference, resident intruder task (duration of attack)” value [2] was “Active”.
